Data taken from publication PMC7781311 (bioRxiv, 2021).
Read-outs that look alike come from different tables or passages of the source. Starred links: 1 amine or outer side, 2 acyl side, 3 side chain; linkers in the order of their positions; H or OH if unused. Residues, ends and D or L forms follow the SMILES beside them. CO = O=C([*:1])[*:2]

System: SARS-CoV-2-S pseudotyped particles (PP)
Assay type: cell-based

CCOC(=O)c1ccc(OC(=O)CCCCCNC(=N)N)cc1 [NCGC00025297, Gabexate]
SARS-2 PP Efficacy: 0%

N=C(N)c1ccc2cc(OC(=O)c3ccc(N=C(N)N)cc3)ccc2c1 [NCGC00160398, Nafamostat]
SARS-2 PP Efficacy: 100%

CN(C)C(=O)COC(=O)Cc1ccc(OC(=O)c2ccc(NC(=N)N)cc2)cc1 [NCGC00167526, Camostat]
SARS-2 PP Efficacy: 100%

COC(=O)[C@H](Cc1cccc(C(=N)N)c1)[C@@H](C)NC(=O)c1ccc(-c2cc[n+]([O-])cc2)cc1 [NCGC00378763, Otamixaban]
SARS-2 PP Efficacy: 50% | SARS-2 PP Efficacy (listed as otamixaban): about 50%

N=C(N)c1ccc2nc(-c3cc(CC(=O)N[C@@H](CC(=O)O)C(=O)O)cc(-c4cc(S(N)(=O)=O)ccc4O)c3O)[nH]c2c1 [NCGC00387860, PCI-27483]
SARS-2 PP Efficacy: about 60%

CC(C)[C@H](NC(=O)[C@H](CCCNC(=N)N)NC(=O)N[C@@H](Cc1ccccc1)C(=O)O)C(=O)N[C@H](C=O)CCCNC(=N)N [NCGC00390338, Antipain] ({Phe-CO}-Arg-Val-Arg-aldehyde)
SARS-2 PP Efficacy: about 60%
